Results published in BindingDB's records for doi:10.1021/acs.jmedchem.8b01467 (Janssen Research & Development, 2018).
pEC50: −log10 of the molar value.

Biological target: Cannabinoid receptor 2 (Homo sapiens, UniProt P34972)
Assay: Inverse agonist activity at human CB2 receptor expressed in HEK293 cells assessed as […] after 30 mins by HTRF assay

Chain of Cannabinoid receptor 2 (P34972 whole entry): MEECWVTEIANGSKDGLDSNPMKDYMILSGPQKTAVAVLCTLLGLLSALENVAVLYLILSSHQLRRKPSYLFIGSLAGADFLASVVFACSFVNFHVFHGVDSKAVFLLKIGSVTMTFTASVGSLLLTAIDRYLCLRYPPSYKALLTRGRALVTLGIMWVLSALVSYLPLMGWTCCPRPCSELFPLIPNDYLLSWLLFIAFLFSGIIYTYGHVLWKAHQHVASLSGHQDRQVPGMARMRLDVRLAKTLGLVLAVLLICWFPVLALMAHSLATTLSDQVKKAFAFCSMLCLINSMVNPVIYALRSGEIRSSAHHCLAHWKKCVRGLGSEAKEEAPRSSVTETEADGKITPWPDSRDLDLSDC

pEC50, < 5.00:
Cn1c(=O)cc(NC2CCN(S(=O)(=O)C(F)(F)F)CC2)c2cc(C(c3ccc(Cl)cc3)c3ccc(Cl)cc3)ccc21 [US9266835, 49]
O=c1cc(NC2CCN(S(=O)(=O)c3ccccc3)CC2)c2cc(C(c3ccc(Cl)cc3)c3ccc(Cl)cc3)ccc2[nH]1 [US9266835, 80]
O=C(O)c1ccc(C(=O)N2CCC(Nc3cc(=O)[nH]c4ccc(C(c5ccc(Cl)cc5)c5ccc(Cl)cc5)cc34)CC2)cc1 [US9266835, 116]
O=C(O)c1ccc(CN2CCC(Nc3cc(=O)[nH]c4ccc(C(c5ccc(Cl)cc5)c5ccc(Cl)cc5)cc34)CC2)cc1 [US9266835, 127]
O=C(O)c1cccc(CN2CCC(Nc3cc(=O)[nH]c4ccc(C(c5ccc(Cl)cc5)c5ccc(Cl)cc5)cc34)CC2)c1 [US9266835, 129]
COCCOc1cc(NC2CCN(S(=O)(=O)C(F)(F)F)CC2)c2cc(C(c3ccc(Cl)cc3)c3ccc(Cl)cc3)ccc2n1 [US9266835, 530]
O=S(=O)(N1CCC(Nc2ccnc3c(O)cc(C(c4ccc(Cl)cc4)c4ccc(Cl)cc4)cc23)CC1)C(F)(F)F [US9266835, 541]
NCCCCOc1cc(C(c2ccc(Cl)cc2)c2ccc(Cl)cc2)cc2c(NC3CCN(S(=O)(=O)C(F)(F)F)CC3)ccnc12 [US9266835, 542]
